# Measured values taken from patent US20250092065A1, “2-(INDAZOL-5-YL)-6-(PIPERIDIN-4-YL)-1,7-NAPHTHYRIDINE DERIVATIVES AND RELATED COMPOUNDS AS MODULATORS FOR SPLICING NUCLEIC ACIDS AND FOR THE TREATMENT OF PROLIFERATIVE DISEASES” (REMIX THERAPEUTICS INC., priority 2022, published 2025).
# pIC50: −log10 of the molar value. Read-outs that look alike come from different tables or passages of the source.
# Columns and labels:
# HTT mRNA = assay: RT-qPCR splicing assay, HTT mRNA canonical (CJ) and alternative (AJ) junction; type: cell-based, human; details: Homo sapiens; for AC50: HTT alternative junction mRNA increase, read-out: HTT AJ (increase in alternative junction mRNA, AC50)
# How it was run: (§1)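 Canonical and alternative-exon junction isoforms were quantified by RT-qPCR in cell lysates, with ΔCt against a housekeeper (GAPDH/GUSB/PPIA), then ΔΔCt vs DMSO, converted to 2^(−ΔΔCt) and percent response. K562 or A673 cells were exposed for 24 h to 11 concentrations (3-fold, top final 10 uM).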
# MYB mRNA = assay: RT-qPCR splicing assay, MYB mRNA canonical (CJ) and alternative (AJ) junction; type: cell-based, human; details: Homo sapiens; for AC50: MYB alternative junction mRNA increase, read-out: MYB AJ (increase in alternative junction mRNA, AC50)
# How it was run: as §1
# SMN2 mRNA = assay: RT-qPCR splicing assay, SMN2 mRNA; type: cell-based, human; details: Homo sapiens, canonical junction qPCR panel, Table 4; read-out: SMN2 IC50 (decrease in CJ mRNA levels)
# How it was run: as §1
# Target C = assay: RT-qPCR canonical junction panel assay, Target C mRNA; type: cell-based; details: Table 4, read-out: Target C IC50 (decrease in CJ mRNA levels)
# Experimental: Compounds described herein were used to modulate RNA transcript abundance in cells. The expression of a target mRNA was measured by detecting the formation of an exon-exon junction in the canonical transcript (CJ). A compound mediated exon-inclusion event was detected by observing an increase in formation of a new junction with an alternative exon (AJ). Real-time qPCR assays were used to detect these splicing switches and interrogate the potency of various compounds towards different target genes. A high-throughput real time quantitative PCR (RT-qPCR) assay was developed to measure these two isoforms of the mRNA (CJ and AJ) for exemplary genes, such as HTT, SMN2, and MYB, together with a control housekeeping gene, GAPDH or GUSB or PPIA, used for normalization. Briefly, the A673 or K562 cell line was treated with various compounds described herein (e.g., compounds of Formula (I)). After treatment, the levels of the HTT, MYB, or SMN2 mRNA targets were determined from each sample of cell lysate by cDNA synthesis followed by qPCR.
# The data analysis was performed by first determining the ΔCt vs the housekeeper gene. This ΔCt was then normalized against the DMSO control (ΔΔCt) and converted to RQ (relative quantification) using the 2^(−ΔΔCt) equation. The RQ were then converted to a percentage response by arbitrarily setting an assay window of 3.5 and 4.0 ΔCt for HTT-CJ and MYB-CJ respectively and an assay window of 9 and 3 ΔCt for HTT-AJ and MYB-AJ in 96 well format (50,000 K562 cells/well and 15,000 A673 cells per well) and an assay window of 3 and 4 ΔCt for HTT-CJ and MYB-CJ respectively and an assay window of 5 and 3 ΔCt for HTT-AJ and MYB-AJ respectively in 384 well format (8,000 K562 cells/well example). […] The percentage response was then fitted to the 4 parametric logistic equation to evaluate the concentration dependence of compound treatment. The increase in AJ mRNA is reported as AC50 (compound concentration having 50% response in AJ increase) while the decrease in CJ mRNA levels is reported as IC50 (compound concentration having […] in CJ decrease).
# Additional studies were carried out for a larger panel of genes using the protocol provided above. The junction between flanking upstream and downstream exons was used to design canonical junction Qpcr assays. At least one of the forward primer, reverse primer or the CY5-labeled 5′ nuclease probe (with 3′ quencher such as ZEN/Iowa Black FQ) was designed to overlap with the exon junction to capture the CJ Mrna transcript. BLAST was used to confirm the specificity of the probeset and parameters suCH As melting temperature, GC content, amplicon size, and primer dimer formation are considered during their design. Data for the decrease in CJ Mrna levels for four exemplary genes (HTT, SMN2, MYB, and Target C) analyzed in this panel are reported as IC50 (compound concentration having […] in CJ decrease).
# K562 cells = assay: Cell Titer Glo 2.0 cell viability (toxicity) assay, K562; details: 500 cells/well, 72 hours
# [1] = RT-qPCR, HTT canonical junction mRNA decrease, read-out: HTT CJ (decrease in canonical junction mRNA, IC50)
# [2] = canonical junction qPCR panel, Table 4, read-out: HTT IC50 (decrease in CJ mRNA levels)
# [3] = RT-qPCR, MYB canonical junction mRNA decrease, read-out: MYB CJ (decrease in canonical junction mRNA, IC50)
# [4] = canonical junction qPCR panel, Table 4, read-out: MYB IC50 (decrease in CJ mRNA levels)
structure (smiles),measurement,setting,value
"Cc1c(O)c(-c2ncc3cc(N4C[C@@H](C)NC5(CC5)C4)ccc3n2)cc2cn(C)nc12 (single isomer, unassigned) [Compound 811]",AC50,HTT mRNA; RT-qPCR,1 to 10 µM
same,pIC50,HTT mRNA; [1],5.00 to 6.00
same,pIC50,HTT mRNA; [2],5.00 to 6.00
same,AC50,MYB mRNA; RT-qPCR,< 0.1 µM
same,pIC50,MYB mRNA; [3],> 7.00
same,pIC50,MYB mRNA; [4],> 7.00
same,pIC50,SMN2 mRNA,> 7.00
same,pIC50,Target C,< 5.00
same,"Effect of Exemplary Compounds on Cell Viability, K562",K562 cells,B (B represents 100-1000 nM)
"C[C@H]1CN(c2ccc3nc(-c4cc5cn(C)nc5cc4O)ncc3c2)CC2(CC2)N1 (single isomer, unassigned) [Compound 812]",AC50,HTT mRNA; RT-qPCR,1 to 10 µM
same,pIC50,HTT mRNA; [1],5.00 to 6.00
same,pIC50,HTT mRNA; [2],5.00 to 6.00
same,AC50,MYB mRNA; RT-qPCR,0.1 to 1 µM
same,pIC50,MYB mRNA; [3],6.00 to 7.00
same,pIC50,MYB mRNA; [4],6.00 to 7.00
same,pIC50,SMN2 mRNA,> 7.00
same,pIC50,Target C,5.00 to 6.00
same,"Effect of Exemplary Compounds on Cell Viability, K562",K562 cells,B (B represents 100-1000 nM)
"C[C@@H]1CN(c2ccc3nc(-c4cc5cn(C)nc5cc4O)ncc3c2)CC2(CC2)N1 (single isomer, unassigned) [Compound 813]",AC50,HTT mRNA; RT-qPCR,> 10 µM
same,pIC50,HTT mRNA; [1],< 5.00
same,pIC50,HTT mRNA; [2],< 5.00
same,AC50,MYB mRNA; RT-qPCR,0.1 to 1 µM
same,pIC50,MYB mRNA; [3],6.00 to 7.00
same,pIC50,MYB mRNA; [4],6.00 to 7.00
same,pIC50,SMN2 mRNA,> 7.00
same,pIC50,Target C,< 5.00
same,"Effect of Exemplary Compounds on Cell Viability, K562",K562 cells,B (B represents 100-1000 nM)
"Cc1cn2cc(-c3ncc4cc(N5C[C@H](C)NC6(CC6)C5)ccc4n3)cc(F)c2n1 (single isomer, unassigned) [Compound 814]",AC50,HTT mRNA; RT-qPCR,1 to 10 µM
same,pIC50,HTT mRNA; [1],6.00 to 7.00
same,pIC50,HTT mRNA; [2],6.00 to 7.00
same,AC50,MYB mRNA; RT-qPCR,0.1 to 1 µM
same,pIC50,MYB mRNA; [3],6.00 to 7.00
same,pIC50,MYB mRNA; [4],6.00 to 7.00
same,pIC50,SMN2 mRNA,> 7.00
same,pIC50,Target C,< 5.00
same,"Effect of Exemplary Compounds on Cell Viability, K562",K562 cells,B (B represents 100-1000 nM)
"Cc1cn2cc(-c3ncc4cc(N5C[C@@H](C)NC6(CC6)C5)ccc4n3)cc(F)c2n1 (single isomer, unassigned) [Compound 815]",AC50,HTT mRNA; RT-qPCR,1 to 10 µM
same,pIC50,HTT mRNA; [1],5.00 to 6.00
same,pIC50,HTT mRNA; [2],5.00 to 6.00
same,AC50,MYB mRNA; RT-qPCR,0.1 to 1 µM
same,pIC50,MYB mRNA; [3],6.00 to 7.00
same,pIC50,MYB mRNA; [4],6.00 to 7.00
same,pIC50,SMN2 mRNA,> 7.00
same,pIC50,Target C,< 5.00
same,"Effect of Exemplary Compounds on Cell Viability, K562",K562 cells,B (B represents 100-1000 nM)
"Cc1cn2cc(-c3ncc4cc(N5C[C@H](C)N[C@@H](C)C5)ccc4n3)cc(Cl)c2n1 (single isomer, unassigned) [Compound 818]",AC50,HTT mRNA; RT-qPCR,1 to 10 µM
same,pIC50,HTT mRNA; [1],6.00 to 7.00
same,pIC50,HTT mRNA; [2],6.00 to 7.00
same,AC50,MYB mRNA; RT-qPCR,< 0.1 µM
same,pIC50,MYB mRNA; [3],> 7.00
same,pIC50,MYB mRNA; [4],> 7.00
same,pIC50,SMN2 mRNA,> 7.00
same,pIC50,Target C,5.00 to 6.00
same,"Effect of Exemplary Compounds on Cell Viability, K562",K562 cells,A (A represents <100 nM)
"C[C@H]1CN(c2ccc3nc(-c4cc(F)c5nncn5c4)ncc3c2)C[C@H](C)N1 (single isomer, unassigned) [Compound 820]",AC50,HTT mRNA; RT-qPCR,> 10 µM
same,pIC50,HTT mRNA; [1],< 5.00
same,pIC50,HTT mRNA; [2],< 5.00
same,AC50,MYB mRNA; RT-qPCR,1 to 10 µM
same,pIC50,MYB mRNA; [3],5.00 to 6.00
same,pIC50,MYB mRNA; [4],5.00 to 6.00
same,pIC50,SMN2 mRNA,6.00 to 7.00
same,pIC50,Target C,< 5.00
same,"Effect of Exemplary Compounds on Cell Viability, K562",K562 cells,C (C represents 1000-9999 nM)
"Cc1nc2c(F)cc(-c3ncc4cc(N5C[C@H](C)N[C@@H](C)C5)ccc4n3)cn2c1F (single isomer, unassigned) [Compound 822]",AC50,HTT mRNA; RT-qPCR,> 10 µM
same,pIC50,HTT mRNA; [1],5.00 to 6.00
same,pIC50,HTT mRNA; [2],5.00 to 6.00
same,AC50,MYB mRNA; RT-qPCR,1 to 10 µM
same,pIC50,MYB mRNA; [3],6.00 to 7.00
same,pIC50,MYB mRNA; [4],6.00 to 7.00
same,pIC50,SMN2 mRNA,6.00 to 7.00
same,pIC50,Target C,5.00 to 6.00
same,"Effect of Exemplary Compounds on Cell Viability, K562",K562 cells,B (B represents 100-1000 nM)
"C[C@@H]1CN(c2ccc3nc(-c4cc(F)c5nn(C)cc5c4)ncc3c2)C[C@H](C)N1 [Compound 780, 6-[(3R,5S)-3,5-dimethylpiperazin-1-yl]-2-(7-fluoro-2-methylindazol-5-yl)quinazoline]",AC50,HTT mRNA; RT-qPCR,1 to 10 µM
same,pIC50,HTT mRNA; [1],5.00 to 6.00
same,pIC50,HTT mRNA; [2],5.00 to 6.00
same,AC50,MYB mRNA; RT-qPCR,0.1 to 1 µM
same,pIC50,MYB mRNA; [3],6.00 to 7.00
same,pIC50,MYB mRNA; [4],6.00 to 7.00
same,pIC50,SMN2 mRNA,> 7.00
same,pIC50,Target C,5.00 to 6.00
same,"Effect of Exemplary Compounds on Cell Viability, K562",K562 cells,B (B represents 100-1000 nM)
"Cc1nc(-c2cc(F)c3nn(C)cc3c2)nc2ccc(N3C[C@@H](C)N[C@@H](C)C3)cc12 [Compound 781, 6-[(3R,5S)-3,5-dimethylpiperazin-1-yl]-2-(7-fluoro-2-methylindazol-5-yl)-4-methylquinazoline]",AC50,HTT mRNA; RT-qPCR,> 10 µM
same,pIC50,HTT mRNA; [1],< 5.00
same,pIC50,HTT mRNA; [2],< 5.00
same,AC50,MYB mRNA; RT-qPCR,1 to 10 µM
same,pIC50,MYB mRNA; [3],5.00 to 6.00
same,pIC50,MYB mRNA; [4],5.00 to 6.00
same,pIC50,SMN2 mRNA,6.00 to 7.00
same,pIC50,Target C,< 5.00
same,"Effect of Exemplary Compounds on Cell Viability, K562",K562 cells,C (C represents 1000-9999 nM)
"Cc1nc(-c2cc3cn(C)nc3cc2O)nc2ccc(N3C[C@@H](C)N[C@@H](C)C3)cc12 [Compound 782, 5-(6-((3S,5R)-3,5-dimethylpiperazin-1-yl)-4-methylquinazolin-2-yl)-2-methyl-2H-indazol-6-ol 2,2,2-trifluoroacetate]",AC50,HTT mRNA; RT-qPCR,> 10 µM
same,pIC50,HTT mRNA; [1],5.00 to 6.00
same,pIC50,HTT mRNA; [2],5.00 to 6.00
same,AC50,MYB mRNA; RT-qPCR,0.1 to 1 µM
same,pIC50,MYB mRNA; [3],6.00 to 7.00
same,pIC50,MYB mRNA; [4],6.00 to 7.00
same,pIC50,SMN2 mRNA,> 7.00
same,pIC50,Target C,< 5.00
same,"Effect of Exemplary Compounds on Cell Viability, K562",K562 cells,B (B represents 100-1000 nM)
"Cc1nc(-c2cc3cn(C)nc3c(C)c2O)nc2ccc(N3C[C@@H](C)N[C@@H](C)C3)cc12 [Compound 783, 5-{6-[(3R,5S)-3,5-dimethylpiperazin-1-yl]-4-methylquinazolin-2-yl}-2,7-dimethylindazol-6-ol]",AC50,HTT mRNA; RT-qPCR,> 10 µM
same,pIC50,HTT mRNA; [1],< 5.00
same,pIC50,HTT mRNA; [2],< 5.00
same,AC50,MYB mRNA; RT-qPCR,0.1 to 1 µM
same,pIC50,MYB mRNA; [3],6.00 to 7.00
same,pIC50,MYB mRNA; [4],6.00 to 7.00
same,pIC50,SMN2 mRNA,> 7.00
same,pIC50,Target C,< 5.00
same,"Effect of Exemplary Compounds on Cell Viability, K562",K562 cells,B (B represents 100-1000 nM)
